Results taken from patent US10947205B2, “Oxazolidinone compounds and methods of use thereof as antibacterial agents” (priority 2015, dated 2021).
Values after ≈ are worked out from the molar mass of the structure shown. Like-named read-outs stand apart in the source and are kept apart here.

Columns and labels:
[1] = test system: Mycobacterium tuberculosis (Mtb); test: microbe, parasite or virus in culture; format: cell-based, Mycobacterium tuberculosis H37Rv (Mtb-GFP); details: 168 h
[2] = test system: Staphylococcus aureus (methicillin resistant, MB5393, COL); test: microbe, parasite or virus in culture; format: cell-based; details: MRSA, 22 h, read-out: MRSA COL MITC95 μM
Description: Inhibition of Staphylococcus aureus (methicillin resistant, MB5393, COL) growth was assessed in cation adjusted Mueller Hinton II broth (CAMHB) in 384-well microtiter plates. Bacteria were dispensed into microtiter plates at approximately 5×10^5 actively growing cells in 49 μL volumes per well. Cells were exposed to 2-fold serial dilutions of compounds from 200 μM to 0.195 μM and growth compared to drug-free control. Compound dilutions were prepared in 100% dimethylsulfoxide and added to microtiter plates in 1 μL volumes per well. Full growth control wells contained dimethylsufoxide and bacteria. No growth control wells contained dimethysulfoxide and CAMHB but no bacteria. Growth inhibition was assessed after a 22-hour growth period by measuring optical density using a spectrophotometer. The lowest concentration of test compound required to inhibit 95% of the growth of the bacteria was defined as the MITC95. All studies were done in a BSL2 facility.

[3] = test system: mitochondrial protein synthesis in HepG2 cells (COX-I / SDH-A); test: Mitochondrial protein synthesis assay; format: cell-based; details: Homo sapiens, read-out: MPS IC50_μM
Description: (§1) Inhibition of mitochondrial protein synthesis was assessed in HepG2 cells by comparing the levels of two subunits of oxidative phosphorylation enzyme complexes, subunit I of Complex IV (COX-I) and the 70 kDa subunit of Complex II (SDH-A). COX-I is mitochondrial DNA encoded and SDH-A is nuclear DNA encoded. HepG2 cells were seeded in 96-well collagen coated plates at 8,000 cells per well and exposed to 2-fold serial dilutions of compounds from 100 LM to 6.25 μM. Microtiter plates were incubated for approximately 5 replication cycles (4 days) prior to assessment of protein levels using a kit as described by the manufacturer (ab 110217 MitoBiogenesis In Cell ELISA Kit, Abcam, Cambridge, Mass.). Inhibition of mitochondrial protein synthesis was expressed as a ratio of COX-1 to SDH-A levels.
as §1, with “μM” for “LM”

[4] = pH 6.8, read-out: Mtb Cho MITC95_μM
[5] = pH 6.8, read-out: Mtb Glu MITC95_μM
[6] = 96 h, HepG2 cells, 4 days, ratio of COX-1 to SDH-A levels

| Compound | MIC [1, 4] | MIC [1, 5] | MIC [2] | IC50 [3, 6] | IC50 ([3]; HepG2, 96 h) |
| --- | --- | --- | --- | --- | --- |
| CSc1ccc(-c2ccc(N3C[C@H](COc4ccon4)OC3=O)cc2F)cc1 [Example 49, (R)-3-(2-fluoro-4′-(methylthio)-[1,1′-biphenyl]-4-yl)-5-((isoxazol-3-yloxy)methyl)oxazolidin-2-one] | 0.58 µM (≈ 0.232 µg/mL) | 0.58 µM (≈ 0.232 µg/mL) | 200 µM (≈ 80.1 µg/mL) | > 20 µM | – |
| CSc1ccc(-c2ccc(N3C[C@H](Cn4occc4=O)OC3=O)cc2F)cc1 [Example 50, (R)-2-((3-(2-fluoro-4′-(methylthio)-[1,1′-biphenyl]-4-yl)-2-oxooxazolidin-5-yl)methyl)isoxazol-3(2H)-one] | 0.58 µM (≈ 0.232 µg/mL) | 0.29 µM (≈ 0.116 µg/mL) | 200 µM (≈ 80.1 µg/mL) | > 20 µM | – |
| O=C1O[C@@H](Cn2ccnn2)CN1c1ccc(-c2ccc(N3CCNCC3)nc2)c(F)c1 [Example 54, (R)-5-((1H-1,2,3-triazol-1-yl)methyl)-3-(3-fluoro-4-(6-(piperazin-1-yl)pyridin-3-yl)phenyl)oxazolidin-2-one] | 0.215 µM (≈ 0.091 µg/mL) | 0.24 µM (≈ 0.102 µg/mL) | 2.34 µM (≈ 0.991 µg/mL) | > 20 µM | – |
| NCc1ccc(F)c(-c2ccc(N3C[C@H](Cn4ccnn4)OC3=O)cc2F)c1 [Example 55, (5R)-3-[5′-(aminomethyl)-2,2′-difluorobiphenyl-4-yl]-5-(1H-1,2,3-triazol-1-ylmethyl)-1,3-oxazolidin-2-one] | 0.19 µM (≈ 0.0732 µg/mL) | 0.19 µM (≈ 0.0732 µg/mL) | 50 µM (≈ 19.3 µg/mL) | > 20 µM | – |
| NC[C@H]1CN(c2ccc(-c3cccs3)c(F)c2)C(=O)O1 [Example 56, (S)-5-(aminomethyl)-3-(3-fluoro-4-(thiophen-2-yl)phenyl)oxazolidin-2-one] | 0.39 µM (≈ 0.114 µg/mL) | 0.39 µM (≈ 0.114 µg/mL) | 100 µM (≈ 29.2 µg/mL) | > 20 µM | – |
| NCC(=O)NC[C@H]1CN(c2ccc(-c3ccc(C(N)=O)cc3)c(F)c2)C(=O)O1 [Example 57, (S)-4′-(5-((2-aminoacetamido)methyl)-2-oxooxazolidin-3-yl)-2′-fluoro-[1,1′-biphenyl]-4-carboxamide] | 0.535 µM (≈ 0.207 µg/mL) | 0.29 µM (≈ 0.112 µg/mL) | 25 µM (≈ 9.66 µg/mL) | 50 µM | – |
| CCNC(=O)NC[C@H]1CN(c2ccc(-c3ccc(SC)cc3)c(F)c2)C(=O)O1 [Example 58, (S)-1-ethyl-3-((3-(2-fluoro-4′-(methylthio)-[1,1′-biphenyl]-4-yl)-2-oxooxazolidin-5-yl)methyl)urea] | 0.19 µM (≈ 0.0767 µg/mL) | 0.58 µM (≈ 0.234 µg/mL) | 200 µM (≈ 80.7 µg/mL) | – | > 20 µM |
| NC[C@H]1CN(c2cc(F)c(N3CCOCC3)c(F)c2)C(=O)O1 [Example 59, (S)-5-(aminomethyl)-3-(3,5-difluoro-4-morpholinophenyl)oxazolidin-2-one] | 0.39 µM (≈ 0.122 µg/mL) | 0.09 µM (≈ 0.0282 µg/mL) | 200 µM (≈ 62.7 µg/mL) | > 20 µM | – |
| COC(=O)NC[C@H]1CN(c2ccc(-c3ccc(SC)cc3)c(F)c2)C(=O)O1 [Example 62, (S)-methyl ((3-(2-fluoro-4′-(methylthio)-[1,1′-biphenyl]-4-yl)-2-oxooxazolidin-5-yl)methyl)carbamate] | 0.04 µM (≈ 0.0156 µg/mL) | 0.04 µM (≈ 0.0156 µg/mL) | 200 µM (≈ 78.1 µg/mL) | 10 µM | – |
| CCOC(=O)NC[C@H]1CN(c2ccc(-c3ccc(SC)cc3)c(F)c2)C(=O)O1 [Example 63, ethyl ({(5S)-3-[2-fluoro-4′-(methylsulfanyl)biphenyl-4-yl]-2-oxo-1,3-oxazolidin-5-yl}methyl)carbamate] | 0.19 µM (≈ 0.0768 µg/mL) | 0.29 µM (≈ 0.117 µg/mL) | 200 µM (≈ 80.9 µg/mL) | 18 µM | – |
| CS(=N)(=O)c1ccc(-c2ccc(N3C[C@H](Cn4ccnn4)OC3=O)cc2F)cc1 (stereo partly drawn) [Example 64, (5R)-5-((1H-1,2,3-triazol-1-yl)methyl)-3-(2-fluoro-4′-(S-methylsulfonimidoyl)-[1,1′-biphenyl]-4-yl)oxazolidin-2-one] | 0.09 µM (≈ 0.0374 µg/mL) | 0.09 µM (≈ 0.0374 µg/mL) | 0.39 µM (≈ 0.162 µg/mL) | > 20 µM | – |
| CC(=O)NC[C@H]1CN(c2ccc(N3CCOCC3)c(F)c2)C(=O)O1 [linezolid, reference compound] | 3.14 µM (≈ 1.06 µg/mL) | 4.58 µM (≈ 1.55 µg/mL) | 6.25 µM (≈ 2.11 µg/mL) | 8 µM | – |
